Experiments:
[1] = molecular target: T1, msGFP-HaloTag® fusion protein (mitochondria) from HEK293T cells (Rhodococcus rhodochrous, UniProt P0A3G2, A155T/A167V/A172T/A224E/C128F/C176G/D78G/E160K/E257K/H272N/K175M/K195N/L47V/L88M/N227D/S58T/T264A/Y273L/Y87F); assay: Affinity capture (streptavidin microbeads) and in-gel fluorescence; format: cell-based; conditions: for affinity capture (protein bound to streptavidin): streptavidin beads; for capture efficiency: mean±SEM, n=3, streptavidin beads
T1 construct: and (4) HaloTag®; expressed in transfected cells; host or cells: HEK293T, calcium phosphate transfection
T1 sequence (P0A3G2 other isoform, or with tags, fused parts or gaps with the stated changes): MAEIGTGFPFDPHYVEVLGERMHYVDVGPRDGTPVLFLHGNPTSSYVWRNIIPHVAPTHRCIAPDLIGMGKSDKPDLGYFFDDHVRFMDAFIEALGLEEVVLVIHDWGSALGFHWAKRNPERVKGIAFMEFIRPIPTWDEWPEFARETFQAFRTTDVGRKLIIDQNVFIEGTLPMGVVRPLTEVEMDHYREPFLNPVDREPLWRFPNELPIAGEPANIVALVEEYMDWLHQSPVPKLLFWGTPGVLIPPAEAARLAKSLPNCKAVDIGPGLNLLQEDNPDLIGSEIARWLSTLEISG
Protocol: Affinity capture and in-gel fluorescence experiments. Affinity capture pulldown isolation experiments of biotin-labeled HaloTag® fusion proteins were performed on ice-cold isolation buffer (IB) consisting of KCl (0.18 M), ethylene glycol-bis(β-aminoethyl ether)-N,N,N′,N′-tetraacetic acid (EGTA; 1 mM), 3-(N-morpholino)propanesulfonic acid (MOPS; 5 mM); the pH was adjusted to pH=7.35 using KOH(aq).^51 HEK293T cells were scraped with 500 μL IB and homogenized using 12 strokes with a 27G syringe. The resulting homogenate was spun at 4° C. at 1000 g for 3 min to pellet large cellular debris. 50 μL of streptavidin-coated microbeads (Miltenyi, 130-048-101) were added to the supernatant and incubated for 30 min at 4° C. with slow rotation. LS columns (Miltenyi, 130-042-401) were prepared by first washing with 3 mL IB consisting of 2.5% bovine serum albumin (BSA; Jackson ImmunoResearch, 001-000-162) and then with plain IB (3×). Prior to supernatant-microbead mixture being loaded onto LS columns, 5% volume was taken for downstream total fraction calculations (i.e., the “total/20” sample). Columns and samples were kept at 4° C. (cold room) while samples were loaded onto columns and washed with IB (3×); this fraction was collected as designated as “wash”. After the washing step, the column was removed from the QuadroMACs magnet holder (Miltenyi, 130-092-857) and eluted with gentle plunge action into an Eppendorf tube; this was labeled as “eluate”. From here, there were three fractions for each condition: total/20, wash (unbound), and eluate (bound). Since mitochondria were being isolated, these samples were spun at 4° C. and 20,000 g to pellet mitochondria. These samples were then solubilized using the lysis buffer containing 1×PBS, 2% SDS, 1% Triton x-100, 10 mM EDTA, and protease inhibitors (2 mM PMSF, aprotinin, leupeptin, and pepstatin A). Samples were then incubated at 72° C. for 3-4 min after the addition of sample buffer (SB) (DTT, glycerol, and bromophenol blue). For protein detection, 10-20 μL of the sample was subjected to sodium dodecyl sulfate-polyacrylamide gel electrophoresis (SDS-PAGE), using 13% gels. The affinity capture pulldown efficiency was monitored using in-gel fluorescence. The msGFP signal from HaloTag®-TEV-4×GS-msGFP-mito after cell lysis and SDS-PAGE was analyzed, in-gel, using a BioRad Chemidoc MP imager (BioRad) through GFP fluorescence excitation and emission filters. Data were quantified by densitometry using Fiji.^52 Capture efficiency was calculated using equation 3:
[formula] • where Ieluate is the in-gel fluorescence intensity of the bead-bound fraction and Itotal/20 is the in-gel fluorescence intensity of the 5% of crude sample reserved for concentration control (i.e., the “total/20” sample).
Evaluation of biotin-HaloTag® ligand. A live cell permeable biotin reagent was saught for affinity pulldown of HaloTag® fusion proteins, given the broad utility of biotin conjugates in biochemistry and cell biology. To evaluate the performance of biotin-containing HaloTag® ligand, an assay was developed (FIG. 3A) where the HaloTag® is expressed as a fusion with monomeric superfolder green fluorescent protein (msGFP); the construct also included an OMP25 sequence to localize the fusion protein to the outer mitochondrial membrane, allowing straightforward imaging and affinity capture experiments.^28-29 HEK293T cells expressing this fusion protein were incubated with biotin-containing HaloTag® ligands followed by washing and cell lysis. The crude supernatant was incubated with streptavidin-coated magnetic microbeads, applied to a magnetic column, and washed. The magnet was removed, and the bead-bound mitochondria were eluted, lysed, and the resulting solution was analyzed by sodium dodecyl sulfate-polyacrylamide gel electrophoresis (SDS-PAGE) and in-gel fluorescence. To minimize dilution of the sample only the initial bead-bound fraction was collected, leaving some material on the column. […]

[2] = 1-Photon spectroscopy and quantum yield of HaloTag® ligands; format: physicochemical; conditions: free ligand, 10 mM HEPES pH 7.3
Protocol: 1-Photon spectroscopy of HaloTag® ligands and HaloTag® conjugates. […] All measurements were taken at ambient temperature (22 ±2° C.). Absorption spectra were recorded on a Cary Model 100 spectrometer (Agilent) using 1-cm path length 1.0-mL quartz microcuvettes from Starna Cells. Fluorescence spectra were recorded on a Cary Eclipse fluorometer (Varian) using 1-cm path length 3.5-mL quartz cuvettes (Starna Cells). As before,^13, 23, 32, 45 HaloTag® protein was used as a 100 μM solution in 1×TBS. HaloTag® ligands 12-15 (5 μM) were dissolved in 10 mM HEPES, pH 7.3, containing 0.1 mg/mL CHAPS. An aliquot of HaloTag® protein (1.5 equiv) was added, and the resulting mixture was incubated until a consistent absorbance signal was observed (60-120 min). To measure the fold-increase of absorbance upon HaloTag® binding, a “no HaloTag®” control experiment was performed where an equivalent volume of TBS blank was added in place of the protein. Reported values for extinction coefficient (ε) are averages of at least two measurements.
Quantum yield determination. All reported absolute fluorescence quantum yield values (Φf) were measured in the laboratory under identical conditions using a Quantaurus-QY spectrometer (model C11374, Hamamatsu). This instrument uses an integrating sphere to determine photons absorbed and emitted by a sample. Measurements were performed using dilute samples (absorbance<0.1), and self-absorption corrections were performed using the instrument software.^46 Reported values are averages of at least two measurements.

[3] = molecular target: T2, HaloTag® protein (HT7) (Rhodococcus rhodochrous, UniProt P0A3G2, A155T/A167V/A172T/A224E/C128F/C176G/D78G/E160K/E257K/H272N/K175M/K195N/L47V/L88M/N227D/S58T/T264A/Y273L/Y87F); assay: 1-Photon spectroscopy and quantum yield of HaloTag® conjugates; format: physicochemical; conditions: absence vs presence of excess HaloTag® protein
T2 construct: 6xHis (N); T7 tag (gene 10 leader) (N); Xpress tag (N); made in house; host or cells: bacterial expression (vector pRSET-A)
T2 sequence (P0A3G2 other isoform, or with tags, fused parts or gaps with the stated changes): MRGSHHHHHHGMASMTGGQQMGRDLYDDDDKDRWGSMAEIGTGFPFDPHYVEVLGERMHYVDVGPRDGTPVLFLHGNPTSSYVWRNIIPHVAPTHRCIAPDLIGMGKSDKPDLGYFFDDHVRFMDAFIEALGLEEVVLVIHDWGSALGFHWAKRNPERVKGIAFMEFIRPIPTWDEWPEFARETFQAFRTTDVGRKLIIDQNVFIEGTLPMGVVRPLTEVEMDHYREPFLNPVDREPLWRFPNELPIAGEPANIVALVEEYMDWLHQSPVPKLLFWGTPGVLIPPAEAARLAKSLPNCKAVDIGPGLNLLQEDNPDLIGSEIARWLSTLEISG
Protocol: HaloTag® protein purification. The bacterial expression vector pRSET-A (Invitrogen) was used to recombinantly express HaloTag® protein (HT7; Promega).^45 The soluble 6×His-Tagged HaloTag® protein was affinity purified by immobilized metal affinity chromatography (IMAC) on a 5-mL Fast Flow HiTrap Sepharose 6 column (Cytiva) with a 0-200 mM imidazole elution gradient using an Avant Protein Purification System (ÄKTA). A280 peak fractions were pooled, concentrated by a spin concentrator, and dialyzed 3× into tris-buffered saline (TBS). The amino acid sequence of HaloTag® protein (HT7) expressed from pRSET-A is SEQ ID NO: 1.
1-Photon spectroscopy of HaloTag® ligands and HaloTag® conjugates. […] All measurements were taken at ambient temperature (22 ±2° C.). Absorption spectra were recorded on a Cary Model 100 spectrometer (Agilent) using 1-cm path length 1.0-mL quartz microcuvettes from Starna Cells. Fluorescence spectra were recorded on a Cary Eclipse fluorometer (Varian) using 1-cm path length 3.5-mL quartz cuvettes (Starna Cells). […] An aliquot of HaloTag® protein (1.5 equiv) was added, and the resulting mixture was incubated until a consistent absorbance signal was observed (60-120 min). To measure the fold-increase of absorbance upon HaloTag® binding, a “no HaloTag®” control experiment was performed where an equivalent volume of TBS blank was added in place of the protein. […]

Molecule	affinity capture (protein bound to streptavidin) [1]	extinction coefficient (ε) [2]	fluorescence quantum yield (Φf) [2]	λabs [2] [nm]	λem [2] [nm]	fluorogenicity upon conjugation to the HaloTag® protein (fold-increase of absorbance) [3] [×]	capture efficiency [1] [%]
C[Si]1(C)c2cc(N3CC(F)C3)ccc2C2(OC(=O)c3ccc(C(=O)NCCOCCOCCCCCCCl)cc32)c2ccc(N3CC(F)C3)cc21 [5HTL, JF635-HaloTag® ligand, reference compound]	no appreciable protein capture						
C[Si]1(C)C2=CC(=[N+]3CC(C(=O)NCCOCCOCCNC(=O)CCCC[C@@H]4SC[C@@H]5NC(=O)N[C@@H]54)C3)C=CC2=C(c2cc(C(=O)NCCOCCOCCCCCCCl)ccc2C(=O)[O-])c2ccc(N3CCC3)cc21 (stereo partly shown) [compound 14, Biotin-JF646-HaloTag® ligand]	efficient affinity capture	34,000 M^−1cm^−1	0.56	647	666	2.5	44.8±2.8
C[Si]1(C)C2=CC(=[N+]3CC(F)(C(=O)NCCOCCOCCNC(=O)CCCC[C@@H]4SC[C@@H]5NC(=O)N[C@@H]54)C3)C=CC2=C(c2cc(C(=O)NCCOCCOCCCCCCCl)ccc2C(=O)[O-])c2ccc(N3CC(F)C3)cc21 (stereo partly shown) [compound 15, Biotin-JF635-HaloTag® ligand]	efficient affinity capture	2,900 M^−1cm^−1	0.60	636	655	14.7	43.4±2.3
Biotin-JF549-HaloTag® ligand [compound 12]		92,000 M^−1cm^−1	0.90	552	575		
